# Measured values taken from patent US8691804B2 (Evotec AG, priority 2008, dated 2014).
# Molecular target: T1, human H3 receptors (Homo sapiens, UniProt Q9Y5N1)
# T1 construct: host or cells: CHO-K1
# Assay: cAMP quantification assay for human H3 receptor testing
# Assay type: cell-based
# Conditions: CHO-K1 cells expressing human H3 receptors; inhibition of agonist-induced decrease of cAMP; 100 nM histamine, 10 μM forskolin; read-out: Potency range (IC50 values)
# Summary of the method: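 CHO-K1 cells expressing human H3 (10,000/well) were preincubated 30 min at 37 °C with compound in PBS containing 1 mM IBMX and 0.03% BSA. They were then challenged 30 min with agonist solution (100 nM histamine plus 10 μM forskolin). cAMP was quantified by enzyme-complementation luminescence, with 8 concentrations in triplicate at 1% DMSO.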
# T1 sequence (Q9Y5N1 whole entry): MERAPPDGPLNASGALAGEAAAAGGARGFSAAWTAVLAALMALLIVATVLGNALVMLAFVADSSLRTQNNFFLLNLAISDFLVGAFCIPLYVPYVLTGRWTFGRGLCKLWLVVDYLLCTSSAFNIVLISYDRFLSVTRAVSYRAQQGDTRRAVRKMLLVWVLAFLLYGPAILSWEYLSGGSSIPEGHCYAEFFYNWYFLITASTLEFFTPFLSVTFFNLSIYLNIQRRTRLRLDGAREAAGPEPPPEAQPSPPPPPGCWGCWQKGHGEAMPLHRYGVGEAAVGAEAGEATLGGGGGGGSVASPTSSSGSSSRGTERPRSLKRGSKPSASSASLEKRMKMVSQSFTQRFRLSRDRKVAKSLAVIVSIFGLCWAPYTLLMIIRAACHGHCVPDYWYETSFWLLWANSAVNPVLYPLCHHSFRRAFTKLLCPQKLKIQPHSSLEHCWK
row,Compound,IC50 [nM]
1,"O=C(N1CCCN(C2CCC2)CC1)N1CC(Oc2ccc(CN3CCC(F)(F)CC3)cc2)C1 [Example 21, 1-cyclobutyl-4-[(3-{4-[(4,4-difluoropiperidin-1-yl)methyl]phenoxy}azetidin-1-yl)carbonyl]-1,4-diazepane]",< 100
2,"O=C(N1CCN(C2CCC2)CC1)N1CC(Oc2ccc(C(F)(F)F)cc2)C1 [Example 39, 1-cyclobutyl-4-({3-[4-(trifluoromethyl)phenoxy]azetidin-1-yl}carbonyl)piperazine]",< 100
3,"COCC1CN(C(=O)N2CCCN(C3CCC3)CC2)C1 [Example 148, 1-cyclobutyl-4-{[3-(methoxymethyl)azetidin-1-yl]carbonyl}-1,4-diazepane]",< 100
4,"O=C(N1CCCN(C2CCC2)CC1)N1CC(Oc2ccc(I)cc2)C1 [Example 44, 1-cyclobutyl-4-{[3-(4-iodophenoxy)azetidin-1-yl]carbonyl}-1,4-diazepane]",< 100
5,"COc1cccc(OC2CN(C(=O)N3CCCN(C4CCC4)CC3)C2)c1 [Example 91, 1-cyclobutyl-4-{[3-(3-methoxyphenoxy)azetidin-1-yl]carbonyl}-1,4-diazepane]",< 100
6,"Cc1ccc(C(=O)NC2CN(C(=O)N3CCCN(C4CCC4)CC3)C2)cn1 [Example 139, N-{1-[(4-cyclobutyl-1,4-diazepan-1-yl)carbonyl]azetidin-3-yl}-6-methylpyridine-3-carboxamide]",< 100
7,"O=C([C@H]1C[C@H](Oc2ccc(C(F)(F)F)cn2)C1)N1CCCN(C2CCC2)CC1 [Example 107, 1-cyclobutyl-4-[(trans-3-{[5-(trifluoromethyl)pyridin-2-yl]oxy}cyclobutyl)carbonyl]-1,4-diazepane]",< 100
8,"Cc1ccc(C(=O)N(C)C2CN(C(=O)N3CCCN(C4CCC4)CC3)C2)cn1 [Example 143, N-{1-[(4-cyclobutyl-1,4-diazepan-1-yl)carbonyl]azetidin-3-yl}-N,6-dimethylpyridine-3-carboxamide]",< 100
9,"O=C(N1CCCN(C2CCC2)CC1)N1CC(Oc2ccc(Cl)cc2)C1 [Example 14, 1-{[3-(4-chlorophenoxy)azetidin-1-yl]carbonyl}-4-cyclobutyl-1,4-diazepane]",< 100
10,"O=C(N1CCCN(C2CCC2)CC1)N1CC(Oc2ccncc2)C1 [Example 81, 1-cyclobutyl-4-{[3-(pyridin-4-yloxy)azetidin-1-yl]carbonyl}-1,4-diazepane]",< 100
11,"CC(C)(O)c1ccc(OC2CN(C(=O)N3CCCN(C4CCCC4)CC3)C2)cn1 [Example 159, 2-[5-({1-[(4-cyclopentyl-1,4-diazepan-1-yl)carbonyl]azetidin-3-yl}oxy)pyridin-2-yl]propan-2-ol]",500 to 5000
12,"O=C(N1CCCN(C2CCC2)CC1)N1CC(OCc2ccc(F)cc2)C1 [Example 95, 1-cyclobutyl-4-({3-[(4-fluorobenzyl)oxy]azetidin-1-yl}carbonyl)-1,4-diazepane]",< 100
13,"O=C(C1CN(C(=O)N2CCCN(C3CCC3)CC2)C1)N1CCCCCC1 [Example 128, 1-{[3-(azepan-1-ylcarbonyl)azetidin-1-yl]carbonyl}-4-cyclobutyl-1,4-diazepane]",< 100
14,"COc1cnc(OC2CN(C(=O)N3CCCN(C4CCC4)CC3)C2)nc1 [Example 120, 1-cyclobutyl-4-({3-[(5-methoxypyrimidin-2-yl)oxy]azetidin-1-yl}carbonyl)-1,4-diazepane]",< 100
15,"O=C(N1CCCN(C2CCC2)CC1)N1CC(Oc2cnccc2Cl)C1 [Example 48, 1-({3-[(4-chloropyridin-3-yl)oxy]azetidin-1-yl}carbonyl)-4-cyclobutyl-1,4-diazepane]",< 100
16,"CC(C)N1CCCN(C(=O)N2CC(Oc3ccc(C(C)(C)O)nc3)C2)CC1 [Example 158, 2-{5-[(1-{[4-(1-methylethyl)-1,4-diazepan-1-yl]carbonyl}azetidin-3-yl)oxy]pyridin-2-yl}propan-2-ol]",< 100
17,"Cc1cncc(OC2CN(C(=O)N3CCCN(C4CCC4)CC3)C2)n1 [Example 63, 1-cyclobutyl-4-({3-[(6-methylpyrazin-2-yl)oxy]azetidin-1-yl}carbonyl)-1,4-diazepane]",< 100
18,"O=C(N1CCCN(C2CCC2)CC1)N1CC(Oc2ccc3ccccc3c2)C1 [Example 152, 1-cyclobutyl-4-{[3-(naphthalen-2-yloxy)azetidin-1-yl]carbonyl}-1,4-diazepane]",< 100
19,"CN(C(=O)c1ccc(Cl)cc1)C1CN(C(=O)N2CCCN(C3CCC3)CC2)C1 [Example 142, 4-chloro-N-{1-[(4-cyclobutyl-1,4-diazepan-1-yl)carbonyl]azetidin-3-yl}-N-methylbenzamide]",< 100
20,"Cc1ccc2cc(OC3CN(C(=O)N4CCCN(C5CCC5)CC4)C3)ccc2n1 [Example 93, 6-({1-[(4-cyclobutyl-1,4-diazepan-1-yl)carbonyl]azetidin-3-yl}oxy)-2-methylquinoline]",< 100
21,"Cc1cc(Cl)ccc1OC1CN(C(=O)N2CCCN(C3CCC3)CC2)C1 [Example 25, 1-{[3-(4-chloro-2-methylphenoxy)azetidin-1-yl]carbonyl}-4-cyclobutyl-1,4-diazepane]",< 100
22,"O=C([C@H]1C[C@@H](Oc2ccc(C(F)(F)F)cn2)C1)N1CCCN(C2CCC2)CC1 [Example 104, 1-cyclobutyl-4-[(cis-3-{[5-(trifluoromethyl)pyridin-2-yl]oxy}cyclobutyl)carbonyl]-1,4-diazepane]",< 100
23,O=C(N1CCCN(C2CCC2)CC1)N1CC(Oc2ncccc2Cl)C1 [Example 76],< 100
